As usually defined, the IC50 is the midpoint of a concentration-inhibition curve. The low end stands for greater potency, the high end for weaker potency. The term Km denotes the concentration of substrate that gives half-maximal velocity.

One series has as its system MOLT-4. The experiment in a line: Ability to inhibit [3H]methotrexate transport into MOLT-4 cells in vitro. As to conditions: Homo sapiens. The format is functional, cell-based.
The next series deals with MCF7. The experiment in a line: Ability to inhibit growth of MCF-7 human breast adenocarcinoma in vitro. The format is functional, cell-based.
A further series concerns CCRF-CEM. Nature of the series: In vitro antitumor activity was assessed from rate of cell growth of CCRF/CEM cell line. Conditions: Homo sapiens. Type of series: functional, cell-based.
Series [1] concerns folylpolyglutamate synthase (FPGS). Nature of the series: Km of Hog folyl-poly-glutamate synthase (FPGS) relative to aminopterin. Also on record: species or system Sus scrofa. Conditions: pig, hog folylpolyglutamate synthase (FPGS) enzyme.
The species entered for the next series is Sus scrofa. The experiment in a line: Vmax of Hog folyl-poly-glutamate synthase (FPGS) relative to aminopterin. As to conditions: pig, in vitro.
Substrate in series [2]: Nc1nc(N)c(CCCNc2ccc(C(=O)N[C@@H](CCC(=O)O)C(=O)O)s2)c(O)n1
Nature of the series: (§1) Km of Hog Folyl-polyglutamate synthase relative to aminopterin. Conditions: Sus scrofa.

Substrate in series [3]: Nc1nc(N)c(CCCNc2cnc(C(=O)N[C@@H](CCC(=O)O)C(=O)O)s2)c(O)n1
The series is described as §1. Conditions: Sus scrofa.

Substrate in series [4]: Nc1nc(N)c(CCCNc2ccc(C(=O)N[C@@H](CCC(=O)O)C(=O)O)s2)c(O)n1
The experiment in a line: (§2) Vmax of Hog Folyl-polyglutamate synthase relative to aminopterin. Conditions: Sus scrofa.

Substrate in series [5]: Nc1nc(N)c(CCCNc2cnc(C(=O)N[C@@H](CCC(=O)O)C(=O)O)s2)c(O)n1
The description is as §2. As to conditions: Sus scrofa.

For `Nc1nc(N)c(CCCNc2ccc(C(=O)N[C@@H](CCC(=O)O)C(=O)O)s2)c(O)n1`, the IC50 with MOLT-4 turned out to be 1600 nM; with MCF7, 38 nM.
The matching figures for `Nc1nc(N)c(CCCNc2cnc(C(=O)N[C@@H](CCC(=O)O)C(=O)O)s2)c(O)n1`: 800 nM and 4 nM.
On to `Nc1nc(O)c2c(n1)NCC(CCc1ccc(C(=O)N[C@@H](CCC(=O)O)C(=O)O)o1)C2` (stereo partly specified), for which, in the series on CCRF-CEM, half-maximal inhibition (IC50) required 27 nM.
Turning to `Nc1nc(O)c2c(n1)NCC(CCc1ccc(C(=O)N[C@@H](CCC(=O)O)C(=O)O)s1)C2` (stereo partly specified), it took 2.3 nM to reach half-maximal inhibition in the series with CCRF-CEM (IC50). This IC50 is about 12-fold lower than that of the molecule before.
The molecule `Nc1nc(N)c(CCCNc2ccc(C(=O)N[C@@H](CCC(=O)O)C(=O)O)cc2)c(O)n1` came in with an IC50 with MCF7 of 37 nM.
With `Nc1nc2c(c(=O)[nH]1)C[C@@H](CCc1ccc(C(=O)N[C@@H](CCC(=O)O)C(=O)O)cc1)CN2` [LOMETREXOL], the Km in [1] stood at 17.5 µM. Moreover, the IC50 is 15 nM with CCRF-CEM, 1500 nM with MOLT-4 and 18 nM in the series with MCF7. In the series listed under Sus scrofa, the Vmax was found to be 97%.

B1: Folylpolyglutamate synthase, mitochondrial (Homo sapiens), Q05932 (protein)
chain: MSRARSHLRAALFLAAASARGITTQVAARRGLSAWPVPQEPSMEYQDAVRMLNTLQTNAGYLEQVKRQRGDPQTQLEAMELYLARSGLQVEDLDRLNIIHVTGTKGKGSTCAFTECILRSYGLKTGFFSSPHLVQVRERIRINGQPISPELFTKYFWRLYHRLEETKDGSCVSMPPYFRFLTLMAFHVFLQEKVDLAVVEVGIGGAYDCTNIIRKPVVCGVSSLGIDHTSLLGDTVEKIAWQKGGIFKQGVPAFTVLQPEGPLAVLRDRAQQISCPLYLCPMLEALEEGGPPLTLGLEGEHQRSNAALALQLAHCWLQRQDRHGAGEPKASRPGLLWQLPLAPVFQPTSHMRLGLRNTEWPGRTQVLRRGPLTWYLDGAHTASSAQACVRWFRQALQGRERPSGGPEVRVLLFNATGDRDPAALLKLLQPCQFDYAVFCPNLTEVSSTGNADQQNFTVTLDQVLLRCLEHQQHWNHLDEEQASPDLWSAPSPEPGGSASLLLAPHPPHTCSASSLVFSCISHALQWISQGRDPIFQPPSPPKGLLTHPVAHSGASILREAAAIHVLVTGSLHLVGGVLKLLEPALSQ
Turning to B1, the values for the Km in [2] and in series [3] were 9.3 µM and 8.6 µM, respectively. In addition, the Vmax is 118% in series [4] and 99.3% in [5].

The record behind these values is ChEMBL document CHEMBL1127566, “Thienyl and thiazolyl acyclic analogues of 5-deazatetrahydrofolic acid” (J Med Chem, 1994).
